Reference: patent US7973164B2, “Quinoline derivatives” (AstraZeneca AB, priority 2006, dated 2011)

What was measured:
PDGFRβ = biological target: T1, PDGFRβ (Homo sapiens, UniProt P09619); assay: Test (b) in vitro phospho-Tyr751 PDGFRβ ELISA assay in MG63 osteosarcoma cells; assay type: cell-based; settings: MG63 osteosarcoma cells stimulated with PDGFBB, read-out: IC50 versus phospho-Tyr751 formation in PDGFRβ
T1 construct: endogenous in cells; host or cells: MG63 osteosarcoma cells (ATCC)
Description: (b) In Vitro Phospho-Tyr751 PDGFRβ ELISA Assay
This assay uses a conventional ELISA method to determine the ability of test compounds to inhibit phosphorylation of tyrosine in PDGFRβ.
Aliquots (100 μl) of culture media were placed in the outer wells to minimise edge effects. The cells were incubated overnight at 37° C. with 7.5% CO2 to allow the cells to adhere to the wells.
Aliquots (3 μl) of each compound concentration were added to test medium (300 μl) to create a second dilution range. Aliquots (16 μl) of each resultant compound concentration were added to the cells in each well. “Maximum” control cells received a dilution of DMSO plus test medium only. “Minimum” control cells received a reference PDGFR inhibitor (16 μl). The cells were incubated for 90 minutes at 37° C. with 7.5% CO2.
The resultant cells were stimulated with PDGFBB using the following procedure. A lyophilised powder of PDGFBB, (Sigma-Aldrich; Catalogue No. P4306) was mixed with sterile water to provide a stock solution of 10 μg/ml of PDGFBB. […] Aliquots thereof (44 μl) were added to compound treated cells and to the “Maximum” control cells. The “Minimum” control cells received medium only. The cells were incubated at 37° C. with 7.5% CO2 for 5 minutes. […] The resultant tissue culture plates were shaken for 5 minutes at ambient temperature to ensure full lysis and then frozen at −20° C. until required.
Aliquots (50 μl) were added to each well and the plates were placed at 4° C. for 16 hours. The wells were washed 5 times (1 minute soak each time) with 300 μl per well of PBST. The wells were treated with 50 μl of 3% BSA in PBST at ambient temperature for 1 hour and subsequently washed twice with 300 μl per well of PBST.
The tissue culture plates with frozen cell lysate were allowed to warm to 0° C. Aliquots (50 μl) of the MG63 cell lysate were added to the ELISA plates. Each sample was duplicated on separate plates. The ELISA plates were agitated at ambient temperature for 2 hours. The wells were washed twice with 300 μl per well of PBST. […] Aliquots (50 μl) of the antibody solutions were added to each of the wells. The plates were agitated at ambient temperature for 1 hour. The plates were washed twice with 300 μl per well of PBST. […] Aliquots (50 μl) of the resultant dilution were added to each well and the plates were agitated at ambient temperature for 1 hour. The plates were washed 5 times with 300 μl per well of PBST. […] Aliquots (50 μl) of chemiluminescent substrate solution were added to each of the wells, the plates were agitated for 2 minutes and luminescence was read on a SpectraFluor Plus plate reader (Tecan UK Ltd., Reading, Berkshire, UK). Analysis for each of the compounds was completed by determining a ratio of the ‘phospho antibody’ plate reading to the ‘total antibody’ plate reading for each test sample and these ratios were plotted to determine the IC50 value of each test compound.

KDR (VEGFR2) = biological target: T2, KDR (VEGFR2) (Homo sapiens, UniProt P35968); assay: Test (c) in vitro phospho-KDR ELISA assay in HUVECs; assay type: cell-based; settings: HUVECs stimulated with VEGF, read-out: IC50 versus phospho-tyrosine formation in KDR
T2 construct: phosphorylation of KDR expressed in human umbilical vein endothelial cells (HUVECs); host or cells: HUVECs
T2 sequence (P35968 20-1356): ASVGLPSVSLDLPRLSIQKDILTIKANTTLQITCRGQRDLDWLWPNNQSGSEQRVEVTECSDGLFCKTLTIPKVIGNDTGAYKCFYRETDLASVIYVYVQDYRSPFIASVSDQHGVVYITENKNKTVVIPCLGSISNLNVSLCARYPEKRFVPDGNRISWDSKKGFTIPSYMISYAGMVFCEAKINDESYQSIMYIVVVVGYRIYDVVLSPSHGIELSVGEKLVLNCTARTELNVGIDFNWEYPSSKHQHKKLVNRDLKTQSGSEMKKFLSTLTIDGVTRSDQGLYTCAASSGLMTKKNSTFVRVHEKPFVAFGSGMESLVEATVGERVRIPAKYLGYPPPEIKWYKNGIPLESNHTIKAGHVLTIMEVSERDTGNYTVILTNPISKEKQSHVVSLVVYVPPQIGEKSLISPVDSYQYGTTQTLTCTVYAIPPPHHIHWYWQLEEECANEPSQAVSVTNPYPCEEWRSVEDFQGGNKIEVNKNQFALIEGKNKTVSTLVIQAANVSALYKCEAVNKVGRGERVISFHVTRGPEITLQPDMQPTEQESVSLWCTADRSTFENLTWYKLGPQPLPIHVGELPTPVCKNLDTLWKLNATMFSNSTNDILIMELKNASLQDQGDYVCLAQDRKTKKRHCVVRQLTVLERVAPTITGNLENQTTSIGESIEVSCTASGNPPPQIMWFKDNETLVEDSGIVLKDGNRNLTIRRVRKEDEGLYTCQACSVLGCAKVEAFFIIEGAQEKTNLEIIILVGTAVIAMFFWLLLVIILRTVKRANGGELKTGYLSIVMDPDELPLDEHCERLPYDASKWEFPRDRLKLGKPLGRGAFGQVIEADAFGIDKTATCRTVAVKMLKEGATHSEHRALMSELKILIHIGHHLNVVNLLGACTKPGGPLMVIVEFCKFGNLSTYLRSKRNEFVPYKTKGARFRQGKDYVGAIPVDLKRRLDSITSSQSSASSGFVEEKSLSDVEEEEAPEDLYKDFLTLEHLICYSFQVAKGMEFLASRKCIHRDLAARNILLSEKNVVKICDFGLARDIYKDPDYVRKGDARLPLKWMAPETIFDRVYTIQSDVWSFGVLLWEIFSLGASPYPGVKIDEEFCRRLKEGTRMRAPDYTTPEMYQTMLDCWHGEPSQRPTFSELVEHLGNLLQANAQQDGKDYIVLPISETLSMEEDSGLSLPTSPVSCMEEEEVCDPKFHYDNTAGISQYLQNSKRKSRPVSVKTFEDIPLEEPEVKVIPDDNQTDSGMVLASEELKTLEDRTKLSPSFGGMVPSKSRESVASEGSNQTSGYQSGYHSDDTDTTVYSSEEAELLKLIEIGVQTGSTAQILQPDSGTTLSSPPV
Description: (c) In Vitro Phospho-KDR ELISA Assay
This assay uses a conventional ELISA method to determine the ability of test compounds to inhibit phosphorylation of tyrosine in KDR (VEGFR2).
The cells were incubated overnight at 37° C. with 7.5% CO2 to allow adherence to the well surface. […] The plates were incubated at 37° C. for 2.5 hours.
Test compounds were prepared as 10 mM stock solutions in DMSO and serially diluted with DMSO as required. Aliquots (3 μl) of each concentration of test compound were diluted with ‘serum fiee medium’ (300 μl). Aliquots (50 μl) of each resultant compound concentration were added to the cells in each well. […] The cells were incubated for 90 minutes at 37° C. with 7.5% CO2.
The resultant cells were stimulated with VEGF using the following procedure. A lyopliilised powder of VEGF (Sigma-Aldrich; Catalogue No. V7259) was mixed with PBS containing 0.1% filter-sterilised BSA (0.1% BSA/PBS) to provide a stock solution of 10 μg/ml of VEGF. A dilution of this stock solution into ‘serum free medium’ provided a 1000 ng/ml VEGF solution. Aliquots thereof (50 μl) were added to all wells. The cells were incubated at 37° C. with 7.5% CO2 for 5 minutes. […] The resultant tissue culture plates were shaken for 5 minutes at ambient temperature to ensure full lysis before being frozen on dry-ice and stored at −20° C. until required.
The antibody was diluted in PBS to a concentration of 8 μg/ml, aliquots (100 μl) were added to each well and the plates were stored at ambient temperature for 16 hours. The wells were washed 3 times (1 minute soak each time) with 300 μl per well of PBST. The wells were treated with PBS containing 1% filter-sterilised BSA (1% BSA/PBS; 200 μl) at ambient temperature for 1 hour and subsequently washed 3 times with 300 μl per well of PBST.
The tissue culture plates with frozen cell lysate were allowed to warm to 0° C. Aliquots (100 μl) of the HUVEC cell lysate were added and the ELISA plates were agitated at ambient temperature for 3 hours. The wells were washed 3 times with 300 μl per well of PBST. […] Aliquots (100 μl) of the resultant dilution were added to each well and the plates were agitated at ambient temperature for 2 hours. The plates were washed 4 times with 300 μl per well of PBST. […] Aliquots (50 μl) of chemiluminescent substrate solution were added to each of the wells, the plates were agitated for 2 minutes and luminescence was read on a SpectraFluor is Plus plate reader (Tecan UK Ltd.). The resultant data were analysed to determine the IC50 value of each test compound.

PDGF receptor kinase = settings: literature (Nature Reviews 2002; Cancer Research 1996); cited from earlier work
[1] = system: human glioblastoma lines U343 and U87; settings: U343 and U87 injected into the brains of nude mice; Cancer Research 2000; cited from earlier work
[2] = system: dermatofibrosarcoma protruberans cell cultures; settings: Cancer Research 2001; cited from earlier work

T1 sequence (P09619 33-1106): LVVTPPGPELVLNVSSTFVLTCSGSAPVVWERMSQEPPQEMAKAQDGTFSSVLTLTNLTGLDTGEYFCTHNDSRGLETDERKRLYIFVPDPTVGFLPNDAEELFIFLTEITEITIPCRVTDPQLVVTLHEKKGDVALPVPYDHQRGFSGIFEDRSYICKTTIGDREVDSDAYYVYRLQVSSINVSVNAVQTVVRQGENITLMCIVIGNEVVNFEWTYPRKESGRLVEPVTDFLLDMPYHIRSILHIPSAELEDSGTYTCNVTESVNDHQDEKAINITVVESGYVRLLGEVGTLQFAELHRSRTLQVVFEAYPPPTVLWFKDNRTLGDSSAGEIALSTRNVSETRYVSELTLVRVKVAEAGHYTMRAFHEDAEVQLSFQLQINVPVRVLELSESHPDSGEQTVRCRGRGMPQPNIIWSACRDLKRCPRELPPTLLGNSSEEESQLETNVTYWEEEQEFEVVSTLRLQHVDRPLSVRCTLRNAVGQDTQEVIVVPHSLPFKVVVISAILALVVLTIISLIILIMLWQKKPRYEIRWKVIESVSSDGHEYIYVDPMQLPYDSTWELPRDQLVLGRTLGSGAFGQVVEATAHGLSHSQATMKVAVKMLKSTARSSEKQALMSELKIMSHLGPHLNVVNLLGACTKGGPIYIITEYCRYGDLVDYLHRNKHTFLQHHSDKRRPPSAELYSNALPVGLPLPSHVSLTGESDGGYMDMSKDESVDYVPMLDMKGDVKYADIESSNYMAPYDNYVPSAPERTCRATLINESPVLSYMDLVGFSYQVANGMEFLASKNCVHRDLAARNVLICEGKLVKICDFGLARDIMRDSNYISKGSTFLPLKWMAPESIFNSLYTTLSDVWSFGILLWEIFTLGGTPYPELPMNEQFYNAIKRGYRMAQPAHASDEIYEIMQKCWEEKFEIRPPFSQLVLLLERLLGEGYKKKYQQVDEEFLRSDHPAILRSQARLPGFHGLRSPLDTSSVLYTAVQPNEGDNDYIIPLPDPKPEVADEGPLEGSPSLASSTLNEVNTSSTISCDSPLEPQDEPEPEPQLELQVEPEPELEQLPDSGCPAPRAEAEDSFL

IC50 (PDGFRβ) [nM] | IC50 (KDR (VEGFR2)) [nM] | SMILES | inhibition of PDGF receptor kinase activity (PDGF receptor kinase) | inhibition of growth of glioblastoma tumours [1] | inhibition of in vivo growth of dermatofibrosarcoma protruberans cell cultures [2]
~3 | ~700 | CCn1cc(NC(=O)Cc2ccc(Oc3ccnc4cc(OC)c(C(=O)N(C)C)cc34)cc2)cn1 [N-(1-ethyl-1H-pyrazol-4-yl)-2-{4-[6-(N,N-dimethylcarbamoyl)-7-methoxyquinolin-4-yloxy]phenyl}acetamide] | – | – | –
~2 | ~750 | CCn1cc(NC(=O)Cc2ccc(Oc3ccnc4cc(OC)c(C#N)cc34)cc2OC)cn1 [N-(1-ethyl-1H-pyrazol-4-yl)-2-[4-(6-cyano-7-methoxyquinolin-4-yloxy)-2-methoxyphenyl]acetamide] | – | – | –
~2 | ~200 | CCn1cc(NC(=O)Cc2ccc(Oc3ccnc4cc(OC)c(C#N)cc34)cc2)cn1 [N-(1-ethyl-1H-pyrazol-4-yl)-2-[4-(6-cyano-7-methoxyquinolin-4-yloxy)phenyl]acetamide] | – | – | –
~20 | > 1000 | CCn1cc(NC(=O)Cc2ccc(Oc3ccnc4ccccc34)cc2OC)cn1 [N-(1-ethyl-1H-pyrazol-4-yl)-2-(2-methoxy-4-quinolin-4-yloxyphenyl)acetamide] | – | – | –
~5 | ~1000 | CNC(=O)c1cc2c(Oc3ccc(CC(=O)Nc4noc(C)c4C)c(OC)c3)ccnc2cc1OC [N-(4,5-dimethylisoxazol-3-yl)-2-{2-methoxy-4-[7-methoxy-6-(N-methylcarbamoyl)quinolin-4-yloxy]phenyl}acetamide] | – | – | –
~10 | > 2000 | COc1cc(Oc2ccnc3ccc(F)cc23)ccc1CC(=O)Nc1cc(C)[nH]n1 [N-(5-methyl-1H-pyrazol-3-yl)-2-[4-(6-fluoroquinolin-4-yloxy)-2-methoxyphenyl]acetamide] | – | – | –
– | – | Cc1ccc(NC(=O)c2ccc(CN3CCN(C)CC3)cc2)cc1Nc1nccc(-c2cccnc2)n1 [imatinib] | shown to inhibit PDGF receptor kinase activity | inhibits the growth of glioblastoma tumours | inhibits the in vivo growth of dermatofibrosarcoma protruberans cell cultures
~5 | > 2000 | CCc1c[nH]nc1NC(=O)Cc1ccc(Oc2ccnc3cc(OC)c(OC)cc23)cc1OC [N-(4-ethyl-1H-pyrazol-3-yl)-2-[4-(6,7-dimethoxyquinolin-4-yloxy)-2-methoxyphenyl]acetamide] | – | – | –
~10 | > 2000 | COc1cc(Oc2ccnc3ccc(F)cc23)ccc1CC(=O)Nc1n[nH]c(C)c1C [N-(4,5-dimethyl-1H-pyrazol-3-yl)-2-[4-(6-fluoroquinolin-4-yloxy)-2-methoxyphenyl]acetamide] | – | – | –
